Source: patent publication US12312333B2, “SK channel positive allosteric modulators” (Chapman University, priority 2021, dated 2025)

Target: T1, rat KCa2.2a (UniProt P0DP23+P70604)
T1 construct: expressed in transfected cells; host or cells: HEK293
Test: Inside-out patch-clamp potentiation of KCa2.2a channels expressed in HEK293 cells
Assay type: cell-based
Settings: for EC50 / activity / potency on KCa2.2a channels: inside-out patch; for EC50: HEK293, 0.15 μM Ca2+, current at −90 mV, read-out: EC50 (mean ± SEM, μM) on potentiating KCa2.2a channels; for efficacy (Emax) on KCa2.2a channels: normalized to 10 μM Ca2+
Experimental: The impact of adding one substituent group at C4 of the cyclohexane moiety of CyPPA with either electron donating (OH (2a), NH2 (2b), CH2OH (2c), and OCH3 (2d)) or electron-withdrawing groups (F (2e) and NO2 (2f)) was explored. The potency of the newly synthesized compounds compared to the template CyPPA was measured via inside-out patch clamp electrophysiology recordings with KCa2.2a channels heterologously expressed in HEK293 cells (FIG. 1A). […] The responses induced by 10 μM Ca^2+ are considered the maximal currents of the KCa2.2a channels. To evaluate the efficacy (Emax) of compounds on KCa2.2a channels, the current amplitudes at −90 mV in response to the maximal concentration of compounds were normalized to that obtained at 10 μM Ca^2+ (I/Imax (%), FIG. 1C).
The effect of newly synthesized compounds on the KCa2.x/KCa3.1 channels was investigated as previously described (Nam, Y. W.; et al, Acta Physiol (Oxf) 2020, e13552; Nam, Y. W.; et al. Scientific reports 2018, 8 (1), 10749). Briefly, the rat KCa2.2a, human KCa2.1, human KCa2.3 or human KCa3.1 channels cDNA constructs were either generated in-house or through molecular cloning services (Genscript). The channel cDNAs, along with CaM and GFP, at a ratio of 7:4:2 (ORF ratios), were transfected into HEK293 cells by the calcium-phosphate method. KCa currents were recorded 1-2 days after transfection, with an Axon200B amplifier (Molecular Devices) at room temperature. The resistance of the patch electrodes ranged from 3-5 MΩ. The pipette solution contained (in mM): 140 KCl, 10 Hepes (pH 7.4), 1 MgSO4. The bath solution containing (in mM): 140 KCl, 10 Hepes (pH 7.2), 1 EGTA, 0.1 Dibromo-BAPTA, and 1 HEDTA was mixed with Ca^2+ to obtain the desired free Ca^2+ concentrations, calculated using the software by Chris Patton of Stanford University (https://somapp.ucdmc.ucdavis.edu/pharmacology/bers/maxchelator/webmaxc/webmaxcS.htm). The Ca^2+ concentrations were verified using a Ca^2+ calibration buffer kit (Thermo Fisher Scientific). Briefly, a standard curve was generated using the Ca^2+ buffers from the kit and a fluorescence Ca^2+ indicator. Then, the Ca^2+ concentrations of the bath solution were determined through interpolation on the standard curve.
High resistance seals (>1 GΩ) were formed before inside-out patches were obtained. The seal resistance of inside-out patches was >1 GΩ, when the intracellular face was initially exposed to a zero-Ca^2+ bath solution. Currents were recorded by repetitive 1-s-voltage ramps from −100 mV to +100 mV from a holding potential of 0 mV. The currents were filtered at 2 kHz and digitized at a sampling frequency of 10 kHz. At the end of experiment, the integrity of the patch was examined by switching the bath solution back to the zero-Ca^2+ buffer. Data from patches, which maintained the seal resistance (>1 GΩ) after solution changes, were used for further analysis.
To measure the effect of CyPPA (Alomone Labs) and newly synthesized compounds, the intracellular face was exposed to bath solutions with 0.15 μM Ca^2+. One minute after switching of bath solutions, ten sweeps with a 1-s interval were recorded at a series of concentrations of compound in the presence of 0.15 μM Ca^2+. The maximal KCa2.x/KCa3.1 current in response to 10 μM Ca^2+ was then recorded.
Patch-clamp recordings were analyzed using Clampfit 10.5 (Molecular Devices LLC) and concentration-response curves were analyzed in GraphPad Prism 9.0.2 (GraphPad Software Inc.). To construct the concentration-dependent potentiation of channel activities by compound, the current amplitudes at −90 mV in response to various concentrations of the compound were normalized to that obtained at a maximal concentration of compound. The normalized currents were plotted as a function of the concentrations of the compound. EC50 values and Hill coefficients were determined by fitting the data points to a standard concentration-response curve (Y=100/(1+(X/EC50)^−Hill)). […]

Molecule | EC50 [µM] | Emax (HEK293, current at −90 mV at maximal compound concentration normalized to 10 μM Ca2+, read-out: Emax on KCa2.2a channels (I/Imax)) [%] | activity / potency on KCa2.2a channels (HEK293) | efficacy (Emax) on KCa2.2a channels
Cc1cc(NC2CCC(O)CC2)nc(-n2nc(C)cc2C)n1 (stereo not shown) [Compound 2a, 4-((2-(3,5-Dimethyl-1H-pyrazol-1-yl)-6-methylpyrimidin-4-yl)amino)cyclohexan-1-ol] | > 100 | – | – | –
Cc1cc(NC2CCC(N)CC2)nc(-n2nc(C)cc2C)n1 (stereo not shown) [Compound 2b, N^1-(2-(3,5-Dimethyl-1H-pyrazol-1-yl)-6-methylpyrimidin-4-yl)cyclohexane-1,4-diamine] | > 100 | – | – | –
Cc1cc(NC2CCC(CO)CC2)nc(-n2nc(C)cc2C)n1 (stereo not shown) [Compound 2c, (4-((2-(3,5-Dimethyl-1H-pyrazol-1-yl)-6-methylpyrimidin-4-yl)amino)cyclohexyl) methanol] | > 100 | – | – | –
COC1CCC(Nc2cc(C)nc(-n3nc(C)cc3C)n2)CC1 (stereo not shown) [Compound 2d, 2-(3,5-Dimethyl-1H-pyrazol-1-yl)-N-(4-methoxycyclohexyl)-6-methylpyrimidin-4-amine] | 49.7 ± 4.38 | 77.3 ± 4.95 | – | –
Cc1cc(NC2CCC(F)CC2)nc(-n2nc(C)cc2C)n1 (stereo not shown) [Compound 2e, 2-(3,5-Dimethyl-1H-pyrazol-1-yl)-N-(4-fluorocyclohexyl)-6-methylpyrimidin-4-amine] | > 100 | – | – | –
Cc1cc(NC2CCC([N+](=O)[O-])CC2)nc(-n2nc(C)cc2C)n1 (stereo not shown) [Compound 2f, 2-(3,5-Dimethyl-1H-pyrazol-1-yl)-6-methyl-N-(4-nitrocyclohexyl)pyrimidin-4-amine] | > 100 | – | – | –
Cc1cc(NCCc2ccc([N+](=O)[O-])cc2)nc(-n2nc(C)cc2C)n1 [Compound 2g, 2-(3,5-Dimethyl-1H-pyrazol-1-yl)-6-methyl-N-(4-nitrophenethyl)pyrimidin-4-amine] | > 100 | – | – | –
Cc1cc(NC(Cc2ccc(C#N)cc2)C(=O)O)nc(-n2nc(C)cc2C)n1 (stereo not shown) [Compound 2h, 3-(4-Cyanophenyl)-2-((2-(3,5-dimethyl-1H-pyrazol-1-yl)-6-methylpyrimidin-4-yl)amino)propanoic acid] | > 100 | – | – | –
Cc1cc(N[C@@H](Cc2ccc(O)cc2)C(=O)O)nc(-n2nc(C)cc2C)n1 [Compound 2i, (2-(3,5-Dimethyl-1H-pyrazol-1-yl)-6-methylpyrimidin-4-yl)tyrosine] | > 100 | – | – | –
Cc1cc(NC(Cc2ccc(F)c(F)c2)C(=O)O)nc(-n2nc(C)cc2C)n1 (stereo not shown) [Compound 2j, 3-(3,4-Difluorophenyl)-2-((2-(3,5-dimethyl-1H-pyrazol-1-yl)-6-methylpyrimidin-4-yl)amino)propanoic acid] | > 100 | – | – | –
Cc1cc(Nc2ccc(S)cc2)nc(-n2nc(C)cc2C)n1 [Compound 2k, 4-((2-(3,5-Dimethyl-1H-pyrazol-1-yl)-6-methylpyrimidin-4-yl)amino)-benzenethiol] | > 100 | – | inactive | –
Cc1cc(Nc2ccc([N+](=O)[O-])cc2)nc(-n2nc(C)cc2C)n1 [Compound 2l, 2-(3,5-Dimethyl-1H-pyrazol-1-yl)-6-methyl-N-(4-nitrophenyl)pyrimidin-4-amine] | > 100 | – | inactive | –
Cc1cc(Nc2ccc(C(F)(F)F)cc2)nc(-n2nc(C)cc2C)n1 [Compound 2s, 2-(3,5-Dimethyl-1H-pyrazol-1-yl)-6-methyl-N-(4-(trifluoromethyl)-phenyl)pyrimidin-4-amine] | 3.45 ± 0.42 | – | did not significantly change the potency compared with CyPPA | –
Cc1cc(Nc2cc(Cl)cc(C(F)(F)F)c2)nc(-n2nc(C)cc2C)n1 [Compound 2u, N-(3-Chloro-5-(trifluoromethyl)phenyl)-2-(3,5-dimethyl-1H-pyrazol-1-yl)-6-methylpyrimidin-4-amine] | > 100 | – | – | –
COc1cc2nc(Nc3cc(C)nc(-n4nc(C)cc4C)n3)[nH]c2cc1OC [Compound 2w, N-(2-(3,5-Dimethyl-1H-pyrazol-1-yl)-6-methylpyrimidin-4-yl)-5,6-dimethoxy-1H-benzo[d]imidazol-2-amine] | > 100 | – | – | –
Cc1cn(-c2nc(C)cc(Nc3ccc(F)c(Cl)c3)n2)cn1 [Compound 5b, N-(3-Chloro-4-fluorophenyl)-6-methyl-2-(4-methyl-1H-imidazol-1-yl)pyrimidin-4-amine] | 38.8 ± 4.02 | – | drastically reduced compared with 2o | decreased compared with 2o
Cc1cc(Nc2cc(Cl)ccc2F)nc(-c2coc(C)n2)n1 [Compound 6a, N-(5-Chloro-2-fluorophenyl)-6-methyl-2-(2-methyloxazol-4-yl)pyrimidin-4-amine] | 13.8 ± 1.68 | – | lower potency than 2q | retained their efficacy
N^1-(2,5-Difluorophenyl)-6-(3,5-dimethyl-1H-pyrazol-1-yl)pyrimidine-2,4-diamine [Compound 3f] | > 100 | – | – | –
N^1-(2-Chloro-5-fluorophenyl)-6-(3,5-dimethyl-1H-pyrazol-1-yl)pyrimidine-2,4-diamine [Compound 3e] | > 100 | – | – | –
N^1-(3-Chloro-4-(trifluoromethyl)phenyl)-6-(3,5-dimethyl-1H-pyrazol-1-yl)pyrimidine-2,4-diamine [Compound 3g] | > 100 | – | – | –

Further lines, results first:

EC50 [µM] | Emax (HEK293, current at −90 mV at maximal compound concentration normalized to 10 μM Ca2+, read-out: Emax on KCa2.2a channels (I/Imax)) [%] | activity / potency on KCa2.2a channels (HEK293) | efficacy (Emax) on KCa2.2a channels | Molecule
5.03 ± 0.59 | – | – | – | Cc1cc(Nc2cccc(F)c2F)nc(-n2nc(C)cc2C)n1 [Compound 2m, N-(2,3-Difluorophenyl)-2-(3,5-dimethyl-1H-pyrazol-1-yl)-6-methyl-pyrimidin-4-amine]
1.89 ± 0.16 | – | – | – | Cc1cc(Nc2cc(F)ccc2F)nc(-n2nc(C)cc2C)n1 [Compound 2n, N-(2,5-Difluorophenyl)-2-(3,5-dimethyl-1H-pyrazol-1-yl)-6-methylpyrimidin-4-amine]
1.99 ± 0.11 | – | – | – | Cc1cc(Nc2ccc(Cl)cc2F)nc(-n2nc(C)cc2C)n1 [Compound 2p, N-(4-Chloro-2-fluorophenyl)-2-(3,5-dimethyl-1H-pyrazol-1-yl)-6-methyl-pyrimidin-4-amine]
2.97 ± 0.27 | – | – | – | Cc1cc(Nc2cc(F)ccc2Cl)nc(-n2nc(C)cc2C)n1 [Compound 2r, N-(2-Chloro-5-fluorophenyl)-2-(3,5-dimethyl-1H-pyrazol-1-yl)-6-methylpyrimidin-4-amine]
3.27 ± 0.3 | – | – | – | Cc1cc(Nc2ccc(C(F)(F)F)c(Cl)c2)nc(-n2nc(C)cc2C)n1 [Compound 2t, N-(3-Chloro-4-(trifluoromethyl)phenyl)-2-(3,5-dimethyl-1H-pyrazol-1-yl)-6-methyl-pyrimidin-4-amine]
4.51 ± 0.44 | – | – | retained their efficacy | Cc1cn(-c2nc(C)cc(Nc3cc(Cl)ccc3F)n2)cn1 [Compound 5a, N-(5-Chloro-2-fluorophenyl)-6-methyl-2-(4-methyl-1H-imidazol-1-yl)pyrimidin-4-amine]
3.59 ± 0.33 | – | – | retained their efficacy | Cc1cc(Nc2ccc(F)c(Cl)c2)nc(-c2coc(C)n2)n1 [Compound 6b, N-(3-Chloro-4-fluorophenyl)-6-methyl-2-(2-methyloxazol-4-yl)pyrimidin-4-amine]
4.32 ± 0.32 | – | reduced potency | retaining their efficacy | Cc1cc(C)n(-c2cc(C)c(Nc3ccc(F)c(Cl)c3)nn2)n1 [Compound 7, N-(3-Chloro-4-fluorophenyl)-6-(3,5-dimethyl-1H-pyrazol-1-yl)-4-methylpyridazin-3-amine]
